Data set [1] in a line: Oral bioavailability in Balb/c mouse at 10 mg/kg administered as cassette dose measured upto 24 hrs by LC/MS/MS analysis. The class given is ADME, organism-based. The settings on record: in vivo.
Data set [2] can be described thus: MRT in Balb/c mouse at 10 mg/kg, po or 1 mg/kg, iv administered as cassette dose measured upto 24 hrs by LC/MS/MS analysis. The class given is ADME, organism-based. The settings on record: in vivo.
Data set [3] addresses T1, Toll-like receptor 7 (Homo sapiens, UniProt Q9NYK1).
T1 sequence (Q9NYK1 whole entry): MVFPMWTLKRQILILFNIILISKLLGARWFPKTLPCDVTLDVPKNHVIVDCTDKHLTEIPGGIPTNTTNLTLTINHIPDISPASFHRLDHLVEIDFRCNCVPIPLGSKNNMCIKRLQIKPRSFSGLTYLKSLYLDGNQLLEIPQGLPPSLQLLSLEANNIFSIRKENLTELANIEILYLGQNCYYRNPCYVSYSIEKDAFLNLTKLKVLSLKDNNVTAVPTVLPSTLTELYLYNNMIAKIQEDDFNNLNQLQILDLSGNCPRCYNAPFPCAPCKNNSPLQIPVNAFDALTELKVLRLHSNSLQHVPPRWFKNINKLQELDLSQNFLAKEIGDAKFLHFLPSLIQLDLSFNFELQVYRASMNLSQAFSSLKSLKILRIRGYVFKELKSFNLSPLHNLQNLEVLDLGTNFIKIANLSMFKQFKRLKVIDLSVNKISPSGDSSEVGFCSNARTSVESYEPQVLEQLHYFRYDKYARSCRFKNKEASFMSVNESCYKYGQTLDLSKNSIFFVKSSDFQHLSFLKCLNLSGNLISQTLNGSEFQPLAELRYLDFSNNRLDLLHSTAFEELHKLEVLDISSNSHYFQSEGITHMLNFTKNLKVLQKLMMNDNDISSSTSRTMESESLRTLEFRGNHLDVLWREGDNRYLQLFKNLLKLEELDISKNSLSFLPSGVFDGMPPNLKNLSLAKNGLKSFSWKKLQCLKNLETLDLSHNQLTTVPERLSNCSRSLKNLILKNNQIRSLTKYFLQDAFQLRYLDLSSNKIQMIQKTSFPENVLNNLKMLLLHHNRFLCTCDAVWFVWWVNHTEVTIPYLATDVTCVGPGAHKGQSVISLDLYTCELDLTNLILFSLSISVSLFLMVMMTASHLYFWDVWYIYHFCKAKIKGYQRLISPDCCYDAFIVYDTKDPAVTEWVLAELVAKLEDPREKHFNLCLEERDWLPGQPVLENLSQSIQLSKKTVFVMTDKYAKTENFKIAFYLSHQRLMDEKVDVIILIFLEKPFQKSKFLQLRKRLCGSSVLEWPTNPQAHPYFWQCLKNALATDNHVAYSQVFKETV
Kind of data set: Antagonist activity at human TLR7 expressed in human PBMC cells assessed as inhibition of ssRNA stimulated IFNalpha level preincubated for 30 mins followed by stimulation and measured after 20 hrs by AlphaLISA method. The class given is cell-based. For orientation: In Alpha technology, singlet oxygen from a donor bead excites a nearby acceptor bead.

The next data set addresses Toll-like receptor 4 (Homo sapiens, UniProt O00206). As to the kind of experiment: Antagonist activity at human TLR4 expressed in human PBMC cells assessed as inhibition of LPS stimulated TNF level preincubated for 30 mins followed by stimulation and measured after 20 hrs by multiplate reader assay. The data set is classed as cell-based.
The target in data set [4] is T2, Toll-like receptor 7 (Mus musculus, UniProt P58681).
T2 sequence (P58681 whole entry): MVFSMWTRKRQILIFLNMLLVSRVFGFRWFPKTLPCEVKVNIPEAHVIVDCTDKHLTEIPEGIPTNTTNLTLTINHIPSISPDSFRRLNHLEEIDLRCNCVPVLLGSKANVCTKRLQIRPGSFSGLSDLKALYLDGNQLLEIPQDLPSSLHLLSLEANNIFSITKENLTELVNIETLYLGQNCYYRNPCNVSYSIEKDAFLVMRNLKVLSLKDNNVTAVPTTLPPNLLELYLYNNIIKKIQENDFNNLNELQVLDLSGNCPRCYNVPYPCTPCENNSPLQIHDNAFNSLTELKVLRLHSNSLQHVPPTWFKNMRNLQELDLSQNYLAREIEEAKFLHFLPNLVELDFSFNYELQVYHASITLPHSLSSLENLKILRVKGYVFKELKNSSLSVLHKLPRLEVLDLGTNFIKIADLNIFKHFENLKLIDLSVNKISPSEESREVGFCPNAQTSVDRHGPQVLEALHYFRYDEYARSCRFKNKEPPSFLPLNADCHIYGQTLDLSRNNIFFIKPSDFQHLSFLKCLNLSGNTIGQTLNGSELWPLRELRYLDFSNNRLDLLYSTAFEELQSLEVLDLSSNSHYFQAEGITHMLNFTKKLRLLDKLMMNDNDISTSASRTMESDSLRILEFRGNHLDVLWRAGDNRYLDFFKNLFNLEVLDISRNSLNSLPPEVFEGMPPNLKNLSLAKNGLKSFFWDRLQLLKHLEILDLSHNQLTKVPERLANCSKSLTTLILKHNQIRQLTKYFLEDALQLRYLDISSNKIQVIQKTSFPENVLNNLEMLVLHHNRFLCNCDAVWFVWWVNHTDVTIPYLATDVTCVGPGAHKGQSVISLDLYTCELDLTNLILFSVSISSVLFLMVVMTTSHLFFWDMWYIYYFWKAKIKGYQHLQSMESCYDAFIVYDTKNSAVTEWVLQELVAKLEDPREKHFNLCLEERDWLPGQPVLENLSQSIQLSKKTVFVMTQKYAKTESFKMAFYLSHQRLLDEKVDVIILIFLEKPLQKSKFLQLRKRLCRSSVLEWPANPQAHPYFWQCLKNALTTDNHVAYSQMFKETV
Kind of data set: Antagonist activity at mouse TLR7 expressed in human PBMC cells assessed as inhibition of ssRNA stimulated IFNalpha level preincubated for 30 mins followed by stimulation and measured after 20 hrs by AlphaLISA method. The data set is classed as cell-based.

In data set [5] the target is T2, Toll-like receptor 7. Kind of data set: Antagonist activity at mouse TLR7 expressed in human whole blood assessed as inhibition of ssRNA stimulated IFNalpha level preincubated for 30 mins followed by stimulation and measured after 20 hrs by AlphaLISA method. The class given is tissue-based.
Data set [6] can be described thus: Drug exposure in 129Sv mouse blood at 0.3 mg/kg, po by LC-MS/MS analysis. The class given is ADME, organism-based. To be noted: in vivo, read-out: Drug uptake.
A short description of data set [7]: Drug exposure in 129Sv mouse blood at 1 mg/kg, po by LC-MS/MS analysis. The settings on record: in vivo, read-out: Drug uptake. The class given is ADME, organism-based.
Data set [8] is described as follows: Drug exposure in 129Sv mouse blood at 3 mg/kg, po by LC-MS/MS analysis. The class given is ADME, organism-based. To be noted: in vivo, read-out: Drug uptake.

Toll-like receptor 4, sequence (O00206 whole entry): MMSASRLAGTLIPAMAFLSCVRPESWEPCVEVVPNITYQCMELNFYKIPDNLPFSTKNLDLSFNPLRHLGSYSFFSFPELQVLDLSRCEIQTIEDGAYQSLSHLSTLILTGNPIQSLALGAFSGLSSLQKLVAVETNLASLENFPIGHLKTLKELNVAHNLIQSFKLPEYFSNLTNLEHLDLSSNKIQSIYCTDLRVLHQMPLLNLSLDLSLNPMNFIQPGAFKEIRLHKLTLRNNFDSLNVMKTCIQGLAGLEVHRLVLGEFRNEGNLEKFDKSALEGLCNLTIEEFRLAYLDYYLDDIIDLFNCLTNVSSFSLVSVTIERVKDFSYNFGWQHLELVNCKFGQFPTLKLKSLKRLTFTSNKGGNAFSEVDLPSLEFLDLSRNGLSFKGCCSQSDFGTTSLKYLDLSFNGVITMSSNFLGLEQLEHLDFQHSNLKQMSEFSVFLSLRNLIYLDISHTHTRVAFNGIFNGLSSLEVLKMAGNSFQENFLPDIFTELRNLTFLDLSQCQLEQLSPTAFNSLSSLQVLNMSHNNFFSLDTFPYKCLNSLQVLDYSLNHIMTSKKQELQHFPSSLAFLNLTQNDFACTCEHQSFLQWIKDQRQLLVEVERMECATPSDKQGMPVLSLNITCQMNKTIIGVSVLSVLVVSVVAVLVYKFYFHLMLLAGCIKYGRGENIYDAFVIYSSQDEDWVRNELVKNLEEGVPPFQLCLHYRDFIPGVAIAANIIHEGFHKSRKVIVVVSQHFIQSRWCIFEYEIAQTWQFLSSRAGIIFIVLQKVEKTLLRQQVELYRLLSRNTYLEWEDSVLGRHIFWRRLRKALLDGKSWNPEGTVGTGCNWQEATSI

Take `Cc1cc(-c2cc3[nH]nc(N[C@@H]4CCNC[C@H]4F)c3cc2C2CC2)cc(C)n1`: the bioavailability – broadly, dose-corrected exposure relative to a reference, in per cent – in data set [1] was 38%. Further, the MRT (usually a mean duration of stay, worked out from the concentration-time curve) in [2] is 2.5 h. Further, the 50% inhibitory concentration (IC50) (commonly the concentration at which inhibition is half-maximal) was 7 nM at Toll-like receptor 7 [3], more than 8000 nM at Toll-like receptor 4, “Not Active” on Toll-like receptor 7 [4] and 2 nM on Toll-like receptor 7 [5]. Also, the values for the concentration in [6], in data set [7] and in data set [8] were 1.3 nM, 8 nM and 110 nM, respectively.

The values are drawn from ChEMBL document CHEMBL5046316, “Structure-Based Optimization of a Fragment-like TLR8 Binding Screening Hit to an In Vivo Efficacious TLR7/8 Antagonist” (ACS Med Chem Lett, 2022).
